According to US5789625A, “Metal-ligand complex catalyzed processes” (priority 1996, dated 1998):

Tests used:
[1] = cited from earlier work
[2] = Extraction experiment: partitioning of base from butyraldehyde to equimolar aqueous H3PO3 (Example 5, Table A); format: physicochemical
Experimental: The following series of experiments were performed in order to determine the relationship of the pKa of a base to the effectiveness of the base to remain in the organic phase upon contact with an equimolar aqueous acid solution. In all cases the experiments were performed under nitrogen, unless otherwise specified.
Solutions were prepared by dissolving a quantity of acid or base in solvent so that the final concentration was equal to 0.1 moles/liter. The 1×10^-3 moles/liter solutions were prepared by taking an aliquot of the 0.1 moles/liter solution and diluting to the specified concentration. The 1×10^-5 moles/liter solutions were prepared in the same manner as the 1×10^-3 moles/liter solution with the modification of using an aliquot of the 1×10^-3 moles/liter solution in place of the 0.1 moles/liter solution.
In each extraction experiment, 5 milliliters of base solution in butyraldehyde was added to a clean, dry vial. To this vial was added 5 milliliters of equimolar H3 PO3 solution. The resulting mixture was rapidly shaken for several minutes and then allowed to phase separate. A 1 milliliter aliquot of the aqueous layer was then transferred to a clean, dry vial. To this vial was added 1 milliliter of pH 7 sodium/potassium phosphate buffer and 0.1 milliliter of Tergitol® 15-S-9 surfactant. The solution was shaken vigorously, and an aliquot was analyzed by high performance liquid chromatography for base content. The amount of base was then compared with a dichloromethane solution at the initial concentration. The partition coefficients calculated are for partitioning of the base from the organic phase to the water phase and is defined as K=amount of base in the water phase/amount of base in the organic phase.

[3] = Stability of Ligand F in butyraldehyde solution containing rhodium, by HPLC (Examples 2-4); format: physicochemical; conditions: for concentration of Ligand F remaining: 0.017 grams phosphorous acid added to 12 gram solution, start 0.39; for change in concentration of Ligand F: no added acid or benzimidazole, 200 ppm rhodium, 0.39 wt% Ligand F in butyraldehyde
[4] = base 1 × 10^-3 moles/liter in butyraldehyde, H3PO3 1 × 10^-3 moles/liter
[5] = base 1 × 10^-5 moles/liter in butyraldehyde, H3PO3 1 × 10^-5 moles/liter

Compound | pKa of base [1] | K (amount of base in the water phase/amount of base in the organic phase) [2, 4] | K (amount of base in the water phase/amount of base in the organic phase) [2, 5] | concentration of Ligand F remaining ([3]; 24 hours) | concentration of Ligand F remaining ([3]; 72 hours) | change in concentration of Ligand F ([3]; 24 hours) | change in concentration of Ligand F ([3]; 72 hours)
O=C1CCCN1Cc1ccccc1 [1-benzyl-2-pyrrolidinone] | -0.7 | – | – | – | – | – | –
c1ccc(Cc2ccccn2)cc1 [2-benzylpyridine] | – | 0.22 | 0.30 | – | – | – | –
CC(=O)c1cccnc1 [3-acetylpyridine] | 3.3 | 0.93 | 0.00 | – | – | – | –
CC(C)(C)c1cc(-c2cc(C(C)(C)C)cc(C(C)(C)C)c2Op2oc3ccccc3c3ccccc3o2)c(Op2oc3ccccc3c3ccccc3o2)c(C(C)(C)C)c1 [Ligand F] | – | – | – | 0.12 percent by weight | 0.04 percent by weight | No change | No change
